# Values of other authors as cited in patent publication US20050176650A1, “Stable parenteral formulation of levomepromazine and a method for stabilizing said formulation” (Xanodyne Pharmacal, Inc., priority 2004, published 2005).
# Experiments:
# [1] = rats; prior art description
# traumatic shock = settings: rats; prior art description
# [2] = prior art description
structure (smiles),measurement,setting,value
"COc1ccc2c(c1)N(C[C@H](C)CN(C)C)c1ccccc1S2 [Levomepromazine, (−)-(2R)-3-(2-methoxy-10H-phenothiazin-10-yl)-N,N,2-trimethylpropan-1-amine]",local anesthesia following parasciatic injections,[1],produce deep local anesthesia
same,protection against traumatic shock,traumatic shock,readily protect against traumatic shock
same,"hypothermic action, potency relative to chlorpromazine",[2],three times more potent than that of chlorpromazine
